These results are taken from patent US20250057813A1, “APOPTOSIS RELATED PROTEIN IN THE TGF-BETA SIGNALING PATHWAY (ARTS) MIMETIC COMPOUNDS, COMPOSITIONS, METHODS AND USES THEREOF IN INDUCTION OF APOPTOSIS” (Carmel-Haifa University Economic Corporation Ltd., priority 2022, published 2025).

Peptide text beside a SMILES is read from it. * marks the point of attachment. Cbz = O=C(OCc1ccccc1)*

Assay [1] relates to WT MEFs and Sept4/ARTS KO MEFs cells. Nature of the assay: Western blot of WT MEFs and Sept4/ARTS KO MEFs. The format is cell-based, mouse. To be noted: 20 or 40 μM, 24 hours. The protocol:
(§1) Cells were lysed in whole-cell extract buffer [25 mM HEPES, pH 7.7, […], 1.5 mM MgCl2, 0.2 mM EDTA, 0.1% Triton X-100, 100 μg/ml phenylmethylsulfonyl fluoride (PMSF) and protease inhibitor cocktail (Roche, 1:100 dilution)] and placed on ice for 30 min (vortexing once after 15 min). After 30 minutes, the samples were centrifuged at 13,000×g for 10 minutes at 4° C. The supernatants containing total protein were measured for protein concentration using Bio-Rad Protein Assay Dye Reagent Concentrate Kit. 40 to […] was separated by sodium dodecyl sulfate-polyacrylamide gel electrophoresis (SDS-PAGE) (12% or 7.5%), followed by transfer to a nitrocellulose membrane. The membranes were blocked with 5% (w/v) non-fat dried skimmed milk powder in PBS supplemented with 0.05% Tween-20 (PBS-T) for 1 h at RT. Next, primary antibodies were added at 4° C. overnight or for 2 h at room temperature. Membranes were then incubated with secondary antibody for 1 h at RT and washed three times for 15 min each with PBS-T. Western Bright ECL (Advansta) was added to the membrane for 30-60 s and analyzed using Image Quant LAS-4000 (GE Healthcare Life Sciences) and Image Quant LAS-4000 software (GE Healthcare Life Sciences).
Background: A western blot detects proteins with antibodies after separation by electrophoresis.

For another assay, the system named is sept4/ARTS KO MEFs. Nature of the assay: Western blot of Sept4/ARTS KO MEFs treated with proteasome inhibitor. The assay is classed as cell-based, mouse. To be noted: MG-132, 20 μM for 6 hours. The protocol: as §1
For assay [2], the system named is Sept4/ARTS KO MEFs, shARTS HeLa, A-375, WT MEFs, WT HeLa. Nature of the assay: Western blot of cell lines with different amounts of endogenous ARTS. The assay is classed as cell-based. As to conditions: ABT-199 alone, 24 hrs. The protocol:
(§2) The cells were lysed in WCE (whole-cell extract) buffer [25 mM Hepes, pH 7.7, 0.3M NaCl, 1.5 mM MgCl2, 0.2 mM EDTA, 0.1% Triton X-100, 100[μg/ml PMSF and protease inhibitor cocktail (Roche, 1:100 dilution)]. 100 μg of total cell protein, measured with the Bio-Rad Protein Assay kit, were separated by SDS-PAGE (12%) followed by transfer for 2 h on to a nitrocellulose membrane. The membrane was blocked with 5% (w/v) non-fat dried skimmed milk powder in PBS supplemented with 0.05% Tween20 (PBS-T) for 1 hour at room temperature (R.T). Membrane was then probed with primary antibody at 4° C. overnight. Next, the membrane was incubated with the appropriate HRP-conjugated secondary antibody, for 1 hour at R.T. and washed 15 min ×3 with PBS-T. WesternBright ECL (Advansta) was added to the membrane for 2 min and analyzed using ImageQuant LAS-4000 analyzer (GE Healthcare Life Sciences) & “ImageQuant LAS-4000” software (GE Healthcare Life Sciences). Densitometry analysis was performed using ImageQuant total lab 7 (GE Healthcare Life Sciences), image analysis software.

Assay [3] relates to A375 human melanoma cells. Nature of the assay: SDS PAGE and Western blot analysis of A375 cells. The format is cell-based. The protocol: as §2, §1
The next assay has as its system HL-60 leukemia cell line. Put plainly: Western blot analysis of HL-60. To be noted: 1 μM ABT199, 24 hrs. The format is cell-based. The procedure: as §2
Assay [4] has as its system CCRF-CEM (acute lymphoblastic leukemia) cell line. Nature of the assay: Western blot analysis of CCRF-CEM. The assay is classed as cell-based. Set-up: cleaved PARP and cleaved Caspase 3: dose or concentration left out as unconfirmed. The procedure:
as §2

The subject of a further assay is p53-ARTS complex. Put plainly: BiFC assay in WT MEFs (VN-p53 and VC-ARTS). The format is cell-based. As to conditions: 200 μM Etoposide. An excerpt: The split-Venus BiFC system was used to evaluate close proximity indicating possible direct binding between pairs of proteins. The proteins were fused either to the N-terminal part of the VenusYFP (yellow fluorescence protein) (VN) or the C-terminal domain (VC). All Venus fragments were fused to the C-terminal sequences of these proteins. The Jun and bFos pair was used as a positive control (p.c.), and the Jun and bFosdeltaZTP pair was used as a negative control (n.c.). A vector encoding dsRed was used as a transfection efficiency marker.

For the compound `COC(=O)c1[nH]c2ccc(Cl)cc2c1NC(=O)CN1CCN(Cc2ccccc2)CC1` [A4, 3-[2-(4-Benzyl-piperazin-1-yl)-acetylamino]-5-chloro-1H-indole-2-carboxylic acid methyl ester], in assay [1], the XIAP levels result is on record as “downregulates” and the p53 levels result is “upregulate”.
In the case of `CC(C)C[C@@H](C=O)NC(=O)[C@H](CC(C)C)NC(=O)[C@H](CC(C)C)NC(=O)OCc1ccccc1` [MG-132] (Cbz-Leu-Leu-Leu-aldehyde), in the assay with sept4/ARTS KO MEFs, the p53 protein levels entry is given as “accumulation”.
Consider `CC1(C)CCC(CN2CCN(c3ccc(C(=O)NS(=O)(=O)c4ccc(NCC5CCOCC5)c([N+](=O)[O-])c4)c(Oc4cnc5[nH]ccc5c4)c3)CC2)=C(c2ccc(Cl)cc2)C1` [ABT-199, 4-[4-[[2-(4-Chlorophenyl)-4,4-dimethyl-1-cyclohexen-1-yl]methyl]-1-piperazinyl]-N-[[3-nitro-4-[[(tetrahydro-2H-pyran-4-yl)methyl]amino]phenyl]sulfonyl]-2-(1H-pyrrolo[2,3-b]pyridin-5-yloxy)benzamide, reference compound], for which the ARTS levels entry in assay [2] was “upregulated”; in assay [3] (5 μM ABT-199, 24 hrs), “upregulated”. For the same compound, the “apoptotic markers, cleaved PARP and cleaved Caspase 3” value in assay [3] (5 μM ABT-199, 24 hrs) was “upregulated”. In addition, the BCL-2 levels result in assay [3] (10 μM ABT-199, 24 hrs) is reported as “upregulated”. The Bcl-2 levels entry in assay [3] (ABT-199 alone, 2, 6 and 24 hrs) is recorded as “upregulated”. Moreover, the “cleaved PARP and cleaved Caspase 3” value in the assay with HL-60 leukemia cell line is listed as “upregulated”; in assay [4] (ABT-199, 24 hrs), “upregulated”. Also, in assay [4] (ABT-199 alone, 24 hrs), the “cleaved Caspase 3” value was “increased”.
As to `COc1cc([C@@H]2c3cc4c(cc3[C@@H](O[C@@H]3O[C@@H]5CO[C@@H](C)O[C@H]5[C@H](O)[C@H]3O)[C@H]3COC(=O)[C@H]23)OCO4)cc(OC)c1O` [Etoposide], the “formation of p53-ARTS complex” value in the assay on p53-ARTS complex is “promotes”.
